Earlier results as cited in patent US5017369A, “Film-forming teat sealer for prevention of mastitis and use thereof” (priority 1989, dated 1991).

Details: gluconate salt dissolved in water

pH of water solutions: ~7.0
SMILES: N=C(NCCCCCCNC(=N)NC(=N)Nc1ccc(Cl)cc1)NC(=N)Nc1ccc(Cl)cc1 [chlorhexidine gluconate, bis(p-chlorophenyl-diguanido)hexane]
